Assays:
[1] = LD50 acute toxicity, ddy mice, single abdominal injection; conditions: mouse, in vivo, ip, 5 ddy mice, 14 days observation, Behrens-Koerber's method
Excerpt: (§1) As used herein, the term "LD50 " denotes the acute toxicity. The term "ED50 " denotes the administered amount needed for reducing the volume of Sarcoma 180 solid tumours in animals to 50% of the corresponding tumour volume in control (untreated) animals. The term "WBC4000 " denotes the minimum dose of the drug needed to reduce the number of peripheral leucocytes to 4000/mm^3. A greater TI value results in a broader tolerance to the drug, which is advantageous for higher anti-tumour activity and decreased toxicity. The term "T" used herein denotes the average survival days of the test animals administered with the test compound. The term "C" denotes the average survival days of the control (untreated) animals. The term "OPD" denotes the dose of the drug resulting in the highest survival ratio. The term "ILS30 " denotes a 30% increase of life-span.
LD50, ED50 and WBC4000 were respectively determined as follows:
Each animal of the test group, consisting of 5 ddy mice, was administered once with a test compound by abdominal injection. […] To determine the LD50 value, Behrens-Koerber's method was applied.

[2] = system: lymphocytic Leukemia P-388; experiment: Anti-tumour activity against lymphocytic Leukemia P-388 in mice; assay type: in vivo, mouse, female of CDF strain; conditions: for (ILSmax)c: (ILSmax of test compound)/(ILSmax of mitomycin C), ILS=(T-C)/C×100; for (TI)c: (TI of test compound)/(TI of mitomycin C), TI = OPD/dose which results in ILS30; for ED (optimal dose, highest survival) / ED (30% increase of life-span): Mus musculus, P388, ip, i.p. 24 h after implantation; for ED (optimal dose, highest survival): dose resulting in the highest survival ratio, 30 days, read-out: OPD; for ED (30% increase of life-span): read-out: Dose needed to give ILS30
Excerpt: Also, their therapeutic indexes, expressed by the formula:
TI=(OPD)/(dose which results in ILS30),
against lymphocytic Leukemia P-388 and the maximum increased life spans (ILSmax), defined by the formula: […]
as §1
The experiment was carried out in the following manner. 1×10^6 lymphocytic Leukemia P-388 tumour cells were abdominally implanted into each mouse of a group consisting of 5 mice (body weight about 22 g; female of CDF strain). 24 hours after implantation, a physiological saline solution (0.2 ml) containing the test compound with or without addition of Tween 80 was abdominally given to the test animal.
Table 7 indicates anti-tumour activities of selected Compounds (I) against lyphocytic Leukemia P-388.

[3] = system: Sarcoma 180 solid tumour; experiment: ED50 against Sarcoma 180 solid tumour implanted in mice; assay type: in vivo, male mouse (ddy strain); conditions: for (CI)c: (CI of test compound)/(CI of mitomycin C), CI = LD50/ED50; for ED50: Mus musculus, Sarcoma-180, iv, 168 h, i.v. (tail vein) 24 h after implantation, tumour volume at 7 days, dose for T/C of 0.5
Excerpt: With regard to the so-called chemotherapeutic index viz. the CI value against sarcoma 180 solid tumour, expressed by the formula: […]
as §1
the term (CI)c denotes (CI of the test compound)/(CI of mitomycin C), and
5×10^6 sarcoma 180 solid tumor cells were abdominally implanted into ddy mice. 7 days after this, ascites cells were sampled. The cells were washed once with a sterilized physiological saline and were used to prepare a cell suspension containing 5×10^7 cells per ml of a sterilized physiological saline. On each occasion, 0.1 ml of the cell suspension was subcutaneously implanted under the skin of the right armpit of a male mouse (ddy strain; body weight 20±2 g). The test compound which was dissolved in a physiological saline with or without addition of Tween 80 was injected into the tail vein of each animal of a group consisting of 5 mice at a dose of 0.1-0.2 ml 24 hours after the implantation of the tumor cells.
The anti-tumor activity was determined in the following manner:
7 days after the implantation, the major axis (a) and the minor axis (b) of the tumour were measured to calculate a value of (a×b^2)/2 which corresponds to the volume of the tumour. The antitumour activity was expressed by the ratio of the volume of the tumour (T) of the group of animals administered with the test compound to the corresponding volume of tumours (C) of the untreated animals.
On graph paper, T/C was plotted on the ordinate using an arithmetic scale and the administered amount of test compound was plotted on the abscissa using a logarithmic scale. The relationship between the dose and T/C was shown by a straight line determined by the method of least squares, from which ED50 viz. a dose corresponding to T/C of 0.5 was obtained.

[4] = system: bone marrow; conditions: background statement; cited from earlier work
[5] = system: tumour; conditions: background statement; cited from earlier work

| Compound | LD50 at 336 h [1] [mg/kg] | (ILSmax)c [2] | (TI)c [2] | ED (optimal dose, highest survival) [2] [mg/kg] | ED (30% increase of life-span) [2] [mg/kg] | (CI)c [3] | ED50 [3] [mg/kg] | toxicity to bone marrow [4] | anti-tumour activity [5] |
| --- | --- | --- | --- | --- | --- | --- | --- | --- | --- |
| CCCNC(=O)SCCNC1=C(C)C(=O)C2=C(C1=O)[C@@H](COC(N)=O)[C@@]1(OC)[C@H]3N[C@H]3CN21 [Compound 27, 7-N--(2-n-propylaminocarbonylthioethyl)mitomycin C] | 37.5 | 1.84 | 3.11 | 25 | 0.67 | 1.33 | 11.1 | – | – |
| CO[C@@]12[C@H](COC(N)=O)C3=C(C(=O)C(C)=C(NCCSC(=O)NC4CCCCC4)C3=O)N1C[C@@H]1N[C@@H]12 [Compound 29, 7-N--(2-cyclohexylaminocarbonylthioethyl)mitomycin C] | 43.8 | 1.69 | 2.45 | 25 | 0.85 | 1.43 | 12 | – | – |
| CCC(C)NC(=O)SCCNC1=C(C)C(=O)C2=C(C1=O)[C@@H](COC(N)=O)[C@@]1(OC)[C@H]3N[C@H]3CN21 (stereo partly shown) [Compound 30, 7-N--(2-sec-butylaminocarbonylthioethyl)mitomycin C] | 37.5 | 1.60 | 3.20 | 25 | 0.65 | 1.53 | 9.6 | – | – |
| COC(=O)[C@H]1CCCN1C(=O)SCCNC1=C(C)C(=O)C2=C(C1=O)[C@@H](COC(N)=O)[C@@]1(OC)[C@H]3N[C@H]3CN21 [Compound 32, 7-N--[2-((S)--2-methoxycarbonylpyrrolidino)carbonylthioethyl]mitomycin C] | 67.5 | 1.40 | 2.14 | 37.5 | 1.67 | 1.48 | 17.9 | – | – |
| CCNC(=S)SCCNC1=C(C)C(=O)C2=C(C1=O)[C@@H](COC(N)=O)[C@@]1(OC)[C@H]3N[C@H]3CN21 [Compound 39, 7-N--(2-ethylaminothiocarbonylthioethyl)mitomycin C] | 45 | > 1.60 | 2.74 | 25 | 0.57 | 2.40 | 7.8 | – | – |
| CO[C@@]12[C@H](COC(N)=O)C3=C(C(=O)C(C)=C(N)C3=O)N1C[C@@H]1N[C@@H]12 [mitomycin C] | – | – | – | – | – | – | – | strong toxicity to bone marrow | strong anti-tumour activity |

Reference: patent publication US4863935A, “Mitomycin compounds having useful anti-tumor activity” (priority 1986, dated 1989)
